In assay [1] the target is T1, ErbB2 or EGFR.
T1 construct: enzymes purified from a baculovirus expression system; Reagent production was conducted essentially as described in Brignola, P. S., et al, (2002) J. Biol. Chem. 277(2): 1576-1585
Briefly: ErbB family substrate phosphorylation enzyme assay (HTRF), Method A or Method B. The assay is classed as biochemical. In short, it runs like this: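 Baculovirus-expressed EGFR or ErbB2 (0.8 or 10 nM in enzyme mix) phosphorylates biotinylated Peptide C with 20 µM ATP and 0.8 µM peptide (substrate-mix levels), MnCl2, pH 7.5. Reaction ran 90 min at 20 °C with EDTA stop and HTRF anti-phosphotyrosine read. Method A: enzyme added last; Method B: 1 h enzyme–compound preincubation.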

Assay [2] relates to BT474 and HN5 tumor cell lines. Briefly: Methylene blue growth inhibition assay (cellular Method A). Format: cell-based, Human. The note with it: Homo sapiens, BT-474, 72 h, 3 days, read-out: Activity (Method): growth inhibition IC50 class. In short, it runs like this: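 Colo205, BT474 and HN5 cells in DMEM/10% FBS (BT474 10,000, HN5 3,000 cells/well) treated next day with compound in DMEM, 0.3% final DMSO, for 3 days at 37° C. Biomass stained with methylene blue, solubilized, read at OD 620; IC50 interpolated by nonlinear regression from % inhibition versus vehicle.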

Where [3] appears, read: Method A: substrate mix added first, reaction started with enzyme mix.
The mark [4] stands for this setting: Method B: enzyme mix pre-incubated with compound 1 hour at 20° C., started with substrate mix.

Regarding `O=C(Nc1cccc(-c2nn3ccccc3c2-c2ccnc(Nc3ccccc3)n2)c1)c1ccco1` [Example 137, Furan-2-carboxylic acid {3-[3-(2-phenylamino-pyrimidin-4-yl)-pyrazolo[1,5-a]pyridin-2-yl]-phenyl}-amide], the “Activity (Method): pIC50 class against ErbB2 or EGFR” value (“Activity (Method): pIC50 class” below) in assay [1] (setting [3]) is reported as “+++ (A) (at least one pIC50 measurement of greater than 7 against either ErbB2 or EGFR)”. Further, the IC50 in assay [2] fell in the range of 100 to 1000 nM.

`CN(C)CCCc1ccc(Nc2nccc(-c3c(-c4cccc(NC(=O)c5c(F)cccc5F)c4)nn4ccccc34)n2)cc1` [Example 112, N-(3-{3-[2-({4-[3-(dimethylamino)propyl]phenyl}-amino)-4-pyrimidinyl]pyrazolo[1,5-a]pyridin-2-yl}phenyl)-2,6-difluorobenzamide]: the “Activity (Method): pIC50 class” value in assay [1] (setting [4]) was “+++ (B) (at least one pIC50 measurement of greater than 7 against either ErbB2 or EGFR)”. The IC50 in assay [2] was less than 100 nM.

Consider `O=C(Nc1cccc(-c2nn3ccccc3c2-c2ccnc(Nc3ccon3)n2)c1)c1c(F)cccc1F` [Example 85, 2,6-Difluoro-N-(3-{3-[2-(3-isoxazolylamino)-4-pyrimidinyl]pyrazolo[1,5-a]pyridin-2-yl}phenyl)benzamide], for which the “Activity (Method): pIC50 class” value in assay [1] (setting [3]) is on record as “+++ (A) (at least one pIC50 measurement of greater than 7 against either ErbB2 or EGFR)”. Further, the IC50 in assay [2] lay in the range of 100 to 1000 nM.

Take `CS(=O)(=O)Cc1ccc(Nc2nccc(-c3c(-c4cccc(NC(=O)c5cc(F)ccc5F)c4)nn4ccccc34)n2)cc1` [Example 53, 2,5-Difluoro-N-(3-{3-[2-({4-[(methylsulfonyl)methyl]-phenyl}amino)-4-pyrimidinyl]pyrazolo[1,5-a]pyridin-2-yl}phenyl)benzamide]: the “Activity (Method): pIC50 class” value in assay [1] (setting [3]) is “++ (A) (at least one pIC50 measurement greater than 6 against either ErbB2 or EGFR but no measurement greater than pIC50 of 7)”. Also, in assay [2], the IC50 lay within 100 to 1000 nM.

For `Cn1nnc2cc(C(=O)Nc3cccc(-c4nn5ccccc5c4-c4ccnc(Nc5cccc(F)c5)n4)c3)ccc21` [Example 26, N-[3-(3-{2-[(3-fluorophenyl)amino]-4-pyrimidinyl}pyrazolo[1,5-a]pyridin-2-yl)phenyl]-1-methyl-1H-1,2,3-benzotriazole-5-carboxamide], in assay [1] (setting [4]), the “Activity (Method): pIC50 class” value is “++ (B) (at least one pIC50 measurement greater than 6 against either ErbB2 or EGFR but no measurement greater than pIC50 of 7)”. Besides, the IC50 in assay [2] is more than 1000 nM.

Take `Cc1cc(Nc2nccc(-c3c(-c4cccc(NC(=O)c5c(F)cccc5F)c4)nn4ccccc34)n2)ccc1C#N` [Example 95]: in assay [1] (setting [4]), the “Activity (Method): pIC50 class” value was “+++ (B) (at least one pIC50 measurement of greater than 7 against either ErbB2 or EGFR)”. Also, the IC50 in assay [2] is less than 100 nM.

As to `O=C(Nc1cccc(-c2nn3ccccc3c2-c2ccnc(Nc3cccc(F)c3)n2)c1)c1ccccc1OC(F)(F)F` [Example 68, N-[3-(3-{2-[(3-fluorophenyl)amino]-4-pyrimidinyl}-pyrazolo[1,5-a]pyridin-2-yl)phenyl]-2-[(trifluoromethyl)oxy]benzamide], the “Activity (Method): pIC50 class” value in assay [1] (setting [4]) is “++ (B) (at least one pIC50 measurement greater than 6 against either ErbB2 or EGFR but no measurement greater than pIC50 of 7)”. Besides, the IC50 in assay [2] is 100 to 1000 nM.

Turning to `O=C(Nc1cccc(-c2nn3ccccc3c2-c2ccnc(Nc3cccc(F)c3)n2)c1)c1cccc(F)c1` [Example 17, 3-Fluoro-N-(3-{3-[2-(3-fluoro-phenylamino)-pyrimidin-4-yl]-pyrazolo[1,5-a]pyridin-2-yl}-phenyl)-benzamide], in assay [1] (setting [4]), the “Activity (Method): pIC50 class” value is on record as “+++ (B) (at least one pIC50 measurement of greater than 7 against either ErbB2 or EGFR)”. Further, the IC50 in assay [2] lay in the range of 100 to 1000 nM.

For the origin of these results see patent publication US7812022B2 (GlaxoSmithKline LLC, priority 2004, dated 2010).
